“Also recorded” adds a separate entry of the source. Non-standard residues stand in square brackets, D forms with d. No end group written: not given here.
How the values were obtained:
Type in all cases: in vivo, mouse
[1] = weight change in animal models of osteoporosis (OVX); conditions: OVX mice, 50 μg/kg intraperitoneally twice a day for 4 weeks; weighed weekly; vs PBS group that gained weight
Experimental: (§1) To make an osteoporosis model, 10-18 12 weeks old female mice per group underwent ovarian ablation. A week later, 50 μg/kg of NPY(21-28), NPY D^25(21-28), NPY D^26(21-28), NPY D^25,26(21-28), Osteopep2, NPY and 100 μl of PBS(Gibco) were intraperitoneally administered twice a day for 4 weeks at 12 hour intervals. Alendronate (Sigma), used as a competitive drug, was intraperitoneally administered once a week for 4 weeks at a dose of 50 μg/kg. As a control group, only Sham model of osteoporosis was performed by subcutaneous dissection of female mouse. Mice were placed in experimental groups using the Block randomization method, and all mouse experiments were approved through the Kyungpook National University Institutional Animal Care and Use Committee.
In order to investigate whether the NPY (21-28) of the present invention affects the blood release of myelopoiesis stem cells in the animal models of osteoporosis, the following experiments were carried out according to the methods of Examples 1-1, 1-3, 1-4, and 1-5. In order to make animal models of osteoporosis, 12 weeks old C57BL/6 female mice were subjected to ovarian ablation for 10 to 18 animals in each group. One week later, 50 μg/kg of NPY (21-28) and 100 μl of PBS (Gibco) were intraperitoneally administered twice a day for 4 weeks at 12 hour intervals. As a control group, mice that underwent only subcutaneous incisions in normal mice were used. Weight change was measured weekly, and bone marrow and blood were collected one hour after the last dose at 4 weeks, and the release of myelopoiesis progenitor and stem cells into blood was analyzed. […]
In order to investigate the effect of NPY (21-28) of the present invention on weight gain induced by osteoporosis, body weight was measured once a week for a total of 4 weeks of NPY (21-28) injection. […]
In order to investigate the effects of NPY D^25(21-28), NPY D^26(21-28), and NPY D^25,26(21-28) of the present invention on weight gain induced by osteoporosis, body weight was measured once a week for a total of 4 weeks in which each peptide was injected.

[2] = system: myelopoiesis stem cells in the bone marrow; test: Flow cytometry analysis (FACs) of stem cells in bone marrow of osteoporosis animal models; conditions: OVX mice, 50 μg/kg i.p. twice a day for 4 weeks; bone marrow 1 hour after last dose
Experimental: as §1
To examine the changes in the number of myelopoiesis stem cells in the bone marrow of the mouse, the bone marrows of mice were collected and analyzed by FACs using five antibodies such as Lineage, Sca-1, c-kit, CD150, and CD48 as markers of myelopoiesis stem cells. For the analysis of myelopoiesis stem cell, bone marrow collected from the tibias and the femurs in the animal models of osteoporosis injected with each peptide was removed from red blood cells with ammonium chloride solution (Stem Cell Technologies, Inc. 1:4). […] The remaining cells were reacted for 30 minutes at 4° C. using Sca-1-PECY7, c-kit-APC, CD150-PE, and CD48-FITC (BD science) antibodies, and then were analyzed by LSRII (BD science) flow cytometry.
In order to investigate whether the NPY (21-28) of the present invention affects the blood release of myelopoiesis stem cells in the animal models of osteoporosis, the following experiments were carried out according to the methods of Examples 1-1, 1-3, 1-4, and 1-5. […] Weight change was measured weekly, and bone marrow and blood were collected one hour after the last dose at 4 weeks, and the release of myelopoiesis progenitor and stem cells into blood was analyzed. […]

[3] = system: animal models of osteoporosis; test: Micro CT bone density in animal models of osteoporosis; conditions: OVX mice, 50 μg/kg i.p. twice a day for 4 weeks; femur microCT; compared to PBS
Experimental: as §1, with “Committee. The femurs were separated from the mouse and refrigerated in 80% ethanol, and in order to measure change of bone density, the bone volume/total volume and trabecular thickness were measured by analyzing the area between 0.7 mm and 2.3 mm from the growth plate baseline with the Quantum FX microCT Imaging System. Femurs were separated from mice after the last administration of NPY (21-28) at 4 weeks. To determine the change of bone density, bone density (bone volume/total volume) and bone tissue thickness (trabecular thickness) were measured with the Quantum FX microCT Imaging System. Femurs were separated from mice after the last administration of NPY D^25(21-28), NPY D^26(21-28), and NPY D^25,26(21-28) at 4 weeks. To determine the change of bone density, bone density (bone volume/total volume) and bone tissue thickness (trabecular thickness) were measured with the Quantum FX microCT Imaging System.” for “Committee.”

[4] = system: osteoblasts in bone marrow; test: H & E staining of osteoblasts in bone marrow of osteoporosis animal models; conditions: OVX mice, 50 μg/kg i.p. twice a day for 4 weeks; compared to PBS
Experimental: as §1
The femurs were separated from the mice and fixed in 4% paraformaldehyde for 24 hours, and tissue was decalcified in 10% EDTA for 5 weeks. It was then dehydrated with a series of diluted alcohols, paraffinized, and prepared into […] paraffin sections.
For H & E staining, the deparaffinized sections were stained with Harris hematoxyline for 8 minutes, washed with distilled water, and stained with Eosin for 1 minute.
Histomorphometric analysis was performed using the OsteoMeasure program (Extensive interactive Bone Histomorphometry Analysis System).
After the last administration of 4 weeks of NPY (21-28), the femurs were separated from the mice, and the number of osteoblasts in bone marrow was measured by H & E staining.
After the last administration of 4 weeks of NPY D^25(21-28), NPY D^26(21-28), and NPY D^25,26(21-28), the femurs were separated from the mice and the number of osteoblasts in bone marrow was measured by H & E staining.

NPY D^25,26(21-28): peptide in which both the fifth and sixth amino acids of NPY (21-28) are modified to D-form (YSAL[dR][dH]YI)
weight change [1]: did not change in weight
number of myelopoiesis stem cells remaining in the bone marrow (FACs) [2]: reduced
bone tissue thickness (trabecular thickness) [3]: increased; also recorded: equal to or higher than that of NPY (21-28); also recorded: best effect
percentage of bone density (BV/TV) [3]: increased; also recorded: equal to or higher than that of NPY (21-28); also recorded: best effect
number of osteoblast (Number of osteoblast/Bone surface) [4]: increased
osteoblast surface (Osteoblast surface/Bone surface) [4]: increased

NPY D^25(21-28): peptide in which arginine, the fifth amino acid of the amino acid sequence of NPY (21-28), is modified to D-type (YSAL[dR]HYI)
weight change [1]: did not change in weight
number of myelopoiesis stem cells remaining in the bone marrow (FACs) [2]: reduced
bone tissue thickness (trabecular thickness) [3]: increased; also recorded: equal to or higher than that of NPY (21-28)
percentage of bone density (BV/TV) [3]: increased; also recorded: equal to or higher than that of NPY (21-28)
number of osteoblast (Number of osteoblast/Bone surface) [4]: increased
osteoblast surface (Osteoblast surface/Bone surface) [4]: increased

YSALRHYI [NPY (21-28)]
weight change [1]: did not change in weight
number of myelopoiesis stem cells remaining in the bone marrow (FACs) [2]: reduced
bone tissue thickness (trabecular thickness) [3]: better than that of the Osteopep2 and NPY
percentage of bone density (BV/TV) [3]: better than that of the Osteopep2 and NPY
number of osteoblast (Number of osteoblast/Bone surface) [4]: increased; also recorded: better than that of Osteopep2
osteoblast surface (Osteoblast surface/Bone surface) [4]: increased; also recorded: better than that of Osteopep2

From US11279744B2, “Neuropeptide Y fragment capable of releasing hematopoietic stem cells into blood and treating osteoporosis” (Kyungpook National University Industry-Academic Cooperation …, priority 2017, dated 2022)
